According to patent US10662146B2, “Prodrugs of fencamfamine” (Praxis Bioresearch, LLC, priority 2015, dated 2020):
“And” between values parts separate entries of the source, which are not always exact repeats. Equal entries are not always repeated. “Also recorded” adds a separate entry of the source. Where two headings read alike, the source gives them in different places.

Assays:
[1] = test system: spontaneous locomotor activity; test: Spontaneous locomotor activity (sLMA), oral administration; type: in vivo, Male Sprague-Dawley (SD) rats; settings: p.o. 1, 5 or 10 mg/kg equivalent of PRX-002 (−), 60 min before 60 min test, vs vehicle
Procedure: Male Sprague-Dawley (SD) were housed in groups of three under controlled conditions. Water and food were available ad libitum. The rats were kept for 1 week under these conditions before behavioral test. On the day of test rats were allowed to acclimate to the testing room for at least 30 min before test compound administration. Rats were randomly assigned into 4 groups.
Vehicle was 0.1% Tween-80 and 0.5% carboxymethylcellulose to which respective amount of PRX-P4-003 was added to obtain a clear solution.
Animals were p.o. administered with Veh or 3 doses of PRX-P4-003 [1, 5 or 10 mg/kg equivalent dose of active compound PRX-002 (−)] at 60 min before spontaneous locomotor activity (sLMA) test.
The rat was placed at the center of test chamber for the 60 min sLMA video recording. 60 min of spontaneous locomotion activity was video recorded and off line analyzed with Animal Behavior Video Tracking Analysis System (Ji Liang Software Technology Co., Ltd., Shanghai, China). Total traveling distance (cm) and duration (sec) of locomotor activity of every 15 min is presented FIGS. 11A and 11B.

[2] = test system: spontaneous locomotor activity; test: Spontaneous locomotor activity (sLMA), intravenous administration; type: in vivo, Male SD rats; settings: i.v. 25.8 mg/kg, equivalent to 10 mg/kg of PRX-002 (−), 90 min recording, vs vehicle
Procedure: Male SD rats were intravenously administered with PRX-002(−) (2 mg/kg) and prodrug PRX-P4-003 [(25.8 mg/kg, equivalent to 10 mg/kg of PRX-002 (−)], and vehicle just before sLMA test.
Vehicle was: 10% PEG 400 (v/v)+30% (v/v) of (50% w/v) Hydroxypropyl-ß-cyclodextrin in water+60% (v/v) sterile water for injection (SWFI): 1 ml/kg volume.
PRX-P4-003 solution was: 25.8 mg/ml PRX-P4-003 (25.8 mg/kg: equivalent to 10 mg/ml active drug, i.v. @volume of 1 ml/kg). 42.3 mg PRX-P4-003 was added to vehicle 1.639 ml, vortexed for 30 min under room temperature to get a uniform suspension solution, suspension solution was continuously stirred during dosage.
The PRX-P4-002(−) solution was: 2 mg/ml PRX-P4-002(−) (2 mg/kg, i.v.@volume of 1 ml/kg). 4.5 mg PRX-002(−) was added to 2.25 ml Vehicle, vortexed for 30 min under room temperature to get a clear solution, the solution was continuously stirred during dosage.
Rat was placed at the center of test chamber for the 90 min sLMA video recording. (n=3/group).

[3] = Single dose oral PK study in male Sprague Dawley rats (plasma by LC-MS/MS); type: in vivo; settings: for Plasma concentration of PRX-P4-003 / AUC% extrap of PRX-P4-003 / Tmax: mean; for Tmax: male, rat, in vivo
How it was run: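 Fasted adult male Sprague Dawley rats (8-10 weeks) got a single oral dose of prodrug, as Tween 80/0.5% CMC suspension, equivalent to 5 mg/kg PRX-002 (up to 10 or 15 mg/kg in some studies). Retro-orbital K2EDTA blood was sampled over 24 h. Plasma fencamfamine was measured by LC-MS/MS.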

CCCCCCCCCCCCCCCCCC(=O)OCOC(=O)N(CC)C1C2CCC(C2)C1c1ccccc1 (single isomer, unassigned) [PRX-P4-003, N-(Octadecanoyloxymethoxycarbonyl)-(−)-N-ethyl-3-phenylbicyclo[2.2.1]heptan-2-amine]
Spontaneous locomotor activity (sLMA): total traveling distance and duration [1]: dose dependent increase in sLMA; also recorded: both traveling distance and locomotion duration increased | Spontaneous locomotor activity (sLMA): total traveling distance and duration [2]: no increase in sLMA; also recorded: practically no change | Prodrug form present in the plasma ([3]; PRX-P4-003 administered orally (FIG. 4)): almost none | Plasma concentration of PRX-P4-003 ([3]; PRX-P4-003 oral 5 mg/kg b.w., 0.00 h): 0.00 | Plasma concentration of PRX-P4-003 ([3]; PRX-P4-003 oral 5 mg/kg b.w., 0.08 h): 0.00 | Plasma concentration of PRX-P4-003 ([3]; PRX-P4-003 oral 5 mg/kg b.w., 0.25 h): 0.00 | Plasma concentration of PRX-P4-003 ([3]; PRX-P4-003 oral 5 mg/kg b.w., 0.50 h): 0.00 | Plasma concentration of PRX-P4-003 ([3]; PRX-P4-003 oral 5 mg/kg b.w., 1.00 h): 0.00 | Plasma concentration of PRX-P4-003 ([3]; PRX-P4-003 oral 5 mg/kg b.w., 2.00 h): 0.00 | Plasma concentration of PRX-P4-003 ([3]; PRX-P4-003 oral 5 mg/kg b.w., 4.00 h): 0.00 | Plasma concentration of PRX-P4-003 ([3]; PRX-P4-003 oral 5 mg/kg b.w., 6.00 h): 0.00 | Plasma concentration of PRX-P4-003 ([3]; PRX-P4-003 oral 5 mg/kg b.w., 24.00 h): 0.00 | AUC% extrap of PRX-P4-003 ([3]; PRX-P4-003 oral 5 mg/kg, 5 mg/kg): 0.0 ± 0.0% and 0.0% | Plasma concentration of PRX-P4-003 ([3]; PRX-P4-003 oral 10 mg/kg b.w., 0.00 h): 0.00 | Plasma concentration of PRX-P4-003 ([3]; PRX-P4-003 oral 10 mg/kg b.w., 0.08 h): 0.00 | Plasma concentration of PRX-P4-003 ([3]; PRX-P4-003 oral 10 mg/kg b.w., 0.25 h): 0.00 | Plasma concentration of PRX-P4-003 ([3]; PRX-P4-003 oral 10 mg/kg b.w., 0.50 h): 0.00 | Plasma concentration of PRX-P4-003 ([3]; PRX-P4-003 oral 10 mg/kg b.w., 1.00 h): 0.00 | Plasma concentration of PRX-P4-003 ([3]; PRX-P4-003 oral 10 mg/kg b.w., 2.00 h): 0.00 | Plasma concentration of PRX-P4-003 ([3]; PRX-P4-003 oral 10 mg/kg b.w., 4.00 h): 0.00 | Plasma concentration of PRX-P4-003 ([3]; PRX-P4-003 oral 10 mg/kg b.w., 6.00 h): 0.00 | Plasma concentration of PRX-P4-003 ([3]; PRX-P4-003 oral 10 mg/kg b.w., 24.00 h): 0.00 | AUC% extrap of PRX-P4-003 ([3]; PRX-P4-003 oral 10 mg/kg): 0.0% | Active PRX-002 (−) Isomer formed in plasma ([3]; PRX-P4-003 oral administration (FIG. 2, FIG. 4)): desired plasma concentration | Tmax ([3]; Sprague Dawley, PRX-P4-003 oral 10 mg/kg, read-out: Tmax of PRX-P4-003): 0 h | Tmax ([3]; Sprague Dawley, oral 5 mg/kg [equivalent to PRX-002 (−)], analyte: prodrug in plasma, read-out: Oral PK Parameters Tmax, Prodrug): 0 h | Tmax ([3]; Sprague-Dawley, PRX-P4-003 oral 5 mg/kg, read-out: Tmax of PRX-P4-003): 0 h
